As a reminder, the IC50 is the concentration that inhibits the measured activity by half. By Ki is commonly meant a measure of affinity in units of concentration, obtained from inhibition or displacement.

Data set [1] concerns mushroom tyrosinase. In words: Mushroom tyrosinase inhibition assay (dopachrome, 475 nm). Type of data set: biochemical. As to conditions: for IC50: mushroom tyrosinase. As for the experimental part:
The ability of the BMTTZD analogs to inhibit mushroom tyrosinase was evaluated in the presence of L-dopa and L-tyrosine as previously described.

Data set [2] has as its target mushroom tyrosinase (Agaricus bisporus, UniProt C7FF04). In words: Kinetic study of mushroom tyrosinase inhibition (Lineweaver–Burk and Dixon plots). The class given is biochemical. As to conditions: for type of tyrosinase inhibition (Lineweaver–Burk plots): substrate L-dopa 0.5–16 mM. As for the experimental part: The initial rate of dopachrome generation was examined at various BMTTZD analog concentrations (0, 1.5, 3, and 6 µM for analog 1; 0, 2, 4, and 8 µM for analogs 2 and 5; and 0, 0.05, 0.1, and 0.2 µM for 3) with 0.5, 1, 2, 4, 8, or 16 mM L-dopa as substrates using mushroom tyrosinase. Plotting the reciprocal of the dopachrome formation rate against the inverse of the L-dopa concentration produced Lineweaver–Burk plots (Figure 2). Each Lineweaver–Burk plot created four straight lines with different slopes. For analogs 1 and 3, the four straight lines met at a point on the y-axis, whereas for analogs 2 and 5, the four straight lines converged at a point in the second quadrant.
The Dixon plots produced lines that met in the second quadrant. The x-coordinate of the convergence position represents the inhibition constant (Ki) of the ligand.
Lineweaver–Burk (L-B) plots were acquired for the kinetic analysis of analogs against mushroom tyrosinase as previously described. In brief, 10 µL of a solution of DMSO and BMTTZD analogs 1–3 or 5 (final concentrations: 0, 1.5, 3, and 6 µM for analog 1; 0, 2, 4, and 8 µM for analogs 2 and 5; and 0, 0.05, 0.1, and 0.2 µM for analog 3) in each well of a 96-well plate was mixed with 20 µL of aqueous mushroom tyrosinase solution (200 units/mL) and 170 µL of an aqueous substrate mixture (various concentrations of L-dopa (final concentrations: 16, 8, 4, 2, 1 and 0.5 mM) and 17.2 mM sodium phosphate buffer (pH 6.5)). During incubation (15 min at 37 °C), the increase in the well absorbance (ΔOD475/min) was calculated at 1 min intervals utilizing a VersaMax® reader.

For data set [3], the system named is B16F10 cells. Put plainly: Cell cytotoxicity test (EZ-Cytox). The class given is cell-based, murine. As to conditions: 2.5–20 µM, 48 and 72 h. The procedure:
Because analogs 1–3 and 5 exerted potent mushroom tyrosinase inhibitory activities, their effects on anti-melanogenic and cellular tyrosinase activities were evaluated in B16F10 murine cells. Prior to examining their cellular activity, their cell viabilities were investigated. Cell viability was evaluated at 48 and 72 h after treatment with five different concentrations of analogs.
The effect on B16F10 cytotoxicity was assessed following a previously described method. Cells (1 × 10^4 cells/well of a 96-well plate) were cultivated for 24 h with 5% CO2 at 37 °C. The cells were exposed to the BMTTZD analogs (test concentrations: 20, 10, 5, 2.5, and 0 µM) and cultivated with 5% CO2 at 37 °C for 72 h. An EZ-Cytox solution (10 µL; EZ-500, DoGenBio, Seoul, Republic of Korea) was exposed to each well, and the plate was cultivated for 2 h. Cell viability was calculated from the well absorbance measured at 450 nm utilizing a reader (VersaMax®).

In data set [4] the target is T1, B16F10 cellular tyrosinase (Mus musculus, UniProt P11344).
T1 construct: host or cells: B16F10 cells
T1 sequence (P11344 19-533): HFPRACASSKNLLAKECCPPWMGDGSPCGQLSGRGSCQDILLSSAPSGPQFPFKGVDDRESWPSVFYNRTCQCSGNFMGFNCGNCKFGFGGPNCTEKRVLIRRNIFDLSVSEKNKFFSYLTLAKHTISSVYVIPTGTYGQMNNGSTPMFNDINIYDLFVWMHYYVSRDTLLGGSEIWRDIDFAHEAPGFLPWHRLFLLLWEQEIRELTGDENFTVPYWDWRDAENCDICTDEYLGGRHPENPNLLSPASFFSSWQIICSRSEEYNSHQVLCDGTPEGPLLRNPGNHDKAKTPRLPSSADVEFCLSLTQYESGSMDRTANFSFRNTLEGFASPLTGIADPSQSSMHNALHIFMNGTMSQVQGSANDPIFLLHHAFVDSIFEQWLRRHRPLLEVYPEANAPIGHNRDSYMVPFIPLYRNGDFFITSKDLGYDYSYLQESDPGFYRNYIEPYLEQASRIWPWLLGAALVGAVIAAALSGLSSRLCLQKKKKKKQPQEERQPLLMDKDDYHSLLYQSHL
In words: Cellular tyrosinase activity assay in B16F10 cells stimulated with IBMX plus α-MSH. The following applies: 72 h; for effect on stimulator-induced cellular tyrosinase activity: 5, 10, 20 µM, IBMX plus α-MSH. The class given is cell-based, murine. The procedure: Analogs 1, 3, and 5 were exposed to B16F10 cells at various concentrations (20, 10, 5, and 0 µM) before exposure to IBMX (200 µM; 3-isobutyl-1-methylxanthine) and α-MSH (1 µM; α-melanocyte-stimulating hormone). After incubation (72 h), B16F10 cellular tyrosinase activity was determined. […] It was examined whether the cellular tyrosinase inhibition of the BMTTZD analogs could influence B16F10 cellular melanin contents.
Effects on B16F10 tyrosinase inhibition were evaluated as previously described. A 6-well plate containing 1 × 10^5 B16F10 cells/well was cultivated for 23 h under conditions identical to those of the cell culture. […] The cells were cultivated for 72 h. After washing 2 times with PBS, the cells were lysed in a 100 µL lysis buffer, including phenylmethylsulfonyl fluoride (5 µL; 1 mM), Triton X-100 (5 µL; 1%), and phosphate buffer (90 µL; 50 mM (pH 6.5)). After 30 min incubation at −80 °C, the cell lysates were centrifuged at 4 °C for 30 min. The supernatants (80 µL) of the lysates were moved to each well of a microplate and mixed with 20 µL 10 mM L-dopa.

The test system of data set [5] is B16F10 cells. In words: Melanin content assay in B16F10 cells. The class given is cell-based, murine. The following applies: 72 h; for effect on intracellular melanin contents enhanced by IBMX plus α-MSH: 5, 10, 20 µM. As for the experimental part:
We examined whether the ability of analogs 1, 3, and 5 to inhibit intracellular tyrosinase activity could affect intracellular melanin levels. B16F10 cells were utilized as mammalian cells. IBMX and α-MSH were used at 200 µM and 1 µM, respectively, to increase melanin biosynthesis. […] For the intracellular melanin content determination, the absorbance at 405 nm was evaluated after 72 h of incubation.
The effect of BMTTZD analogs on melanin biosynthesis was investigated following a previously described method. A 6-well microplate containing 1 × 10^5 B16F10 cells/well was cultivated for 23 h under conditions identical to those of the cell culture. […] After exposure to IBMX and α-MSH, B16F10 cells were cultivated for 72 h at 37 °C. The cells were rinsed 2 times with PBS, treated with 1N-NaOH aqueous solution (100 µL), and cultivated at 60 °C for 1 h. The lysates were moved to a microplate. At 405 nm, the well absorbance was measured utilizing a VersaMax® reader. Each experiment was carried out three times independently.

Data set [6] has as its target T1, B16F10 cellular tyrosinase. Put plainly: In situ cellular tyrosinase activity assay using L-dopa staining. The class given is cell-based, murine. As to conditions: 72 h; for effect on stimulator-raised in situ intracellular tyrosinase activity (L-dopa staining): analogs 5, 10, 20 µM, kojic acid 20 µM. The procedure: Because tyrosinase plays a critical role in melanogenesis, in situ intracellular tyrosinase activity was measured. The in situ intracellular tyrosinase activity was evaluated in B16F10 cells following a previously reported procedure. Stimulators (α-MSH plus IBMX) were exposed to cells to raise tyrosinase activity levels, and analogs 1, 3, and 5 were treated at 20, 10, and 5 µM for 72 h. After fixation and permeabilization using paraformaldehyde and Triton X-100, the cells were stained with L-dopa.
A 24-well plate containing 1 × 10^3 B16F10 cells/well was cultivated for 24 h under conditions identical to those of the cell culture. […] The cells were then cultivated under conditions identical to those of the cell culture for 72 h. Cultivated cells were fixed for 40 min with paraformaldehyde (4%), washed 2 times with PBS, and permeabilized with Triton X-100 (0.1%) for 2 min. After washing 2 times with PBS, the cells in the 24-well plate were stained with a 2 mM L-dopa aqueous solution (500 µL/well) for 2 h at 37 °C. Staining was photographed and analyzed utilizing a camera connected to a microscope (Motic, Hong Kong).

The nature of data set [7]: DPPH radical scavenging activity assay. As to conditions: 500 µM. As for the experimental part:
First, the ability of BMTTZD analogs 1–8 to scavenge DPPH radicals was examined using L-ascorbic acid (vitamin C; positive control). All samples were tested at 500 µM.
The ability of the BMTTZD analogs to scavenge DPPH radicals was evaluated as previously reported. To each well of a 96-well plate containing analogs 1–8 (5 mM in […]; 20 µL) was added a DPPH solution (0.2 mM in methanol; 180 µL). The mixture was kept in a place without light for 30 min at 25°C to generate DPPH radicals. The well absorbance at 517 nm was measured utilizing a VersaMax® reader. The ability of the analogs to remove DPPH radicals was compared to that of vitamin C.
Background: DPPH is a stable violet radical that fades when it is reduced.

Setting [8] is: substrate L-dopa, read-out: IC50 (Mean ± SEM, µM) L-Dopa.
Setting [9] is: substrate L-tyrosine, read-out: IC50 (Mean ± SEM, µM) L-Tyrosine.
The mark [10] stands for this setting: analog at highest concentration tested (20 µM).

SMILES strings stand for the structures. Where two headings read alike, the source gives them in different places.

Sequence of mushroom tyrosinase (Agaricus bisporus, UniProt C7FF04) (C7FF04 1-392): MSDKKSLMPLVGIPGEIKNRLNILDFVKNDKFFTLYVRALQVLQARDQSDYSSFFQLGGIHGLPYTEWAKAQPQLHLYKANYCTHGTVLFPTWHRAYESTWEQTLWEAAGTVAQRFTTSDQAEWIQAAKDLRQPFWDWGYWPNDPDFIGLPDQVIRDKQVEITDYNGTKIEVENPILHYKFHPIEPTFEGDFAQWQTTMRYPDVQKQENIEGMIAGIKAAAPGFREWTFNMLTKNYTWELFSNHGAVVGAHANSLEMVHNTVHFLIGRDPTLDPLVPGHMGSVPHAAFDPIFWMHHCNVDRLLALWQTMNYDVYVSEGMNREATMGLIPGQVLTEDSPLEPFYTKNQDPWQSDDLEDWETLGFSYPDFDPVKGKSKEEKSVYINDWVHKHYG

In the case of `CN1C(=O)/C(=C/c2ccc(O)cc2)SC1=S` [Analog 1, (Z)-5-(4-Hydroxybenzylidene)-3-methyl-2-thioxothiazolidin-4-one], in the data set with mushroom tyrosinase [1] (substrate L-dopa), the “reduction in tyrosinase inhibition relative to analog 3” value is 17 fold. For the same compound, the IC50 at mushroom tyrosinase [1] (setting [8]) was 17.6 ± 0.62 µM; at mushroom tyrosinase [1] (setting [9]) it was 3.82 ± 0.22 µM. The “tyrosinase inhibition, times stronger than kojic acid” value in the data set with mushroom tyrosinase [1] (substrate L-tyrosine) is “five times more strongly than kojic acid”. At mushroom tyrosinase [2], the “type of tyrosinase inhibition (Lineweaver–Burk plots)” value is recorded as “competitive inhibitors”. At mushroom tyrosinase [2] (substrate L-dopa, read-out: inhibition constant (Ki) from Dixon plots), the Ki was 6.2 µM. Besides, in the data set on B16F10 cells [3], the “cytotoxicity (cell viability)” value is recorded as “did not exhibit cytotoxicity at ≤20 µM”. In addition, the “effect on stimulator-induced cellular tyrosinase activity” value in data set [4] was “concentration-dependently and significantly reduced”. Also, the “cellular tyrosinase inhibition compared with kojic acid (20 µM)” value in data set [4] (analog at 10 µM) is “slightly more strongly than kojic acid”; in data set [4] (setting [10]), “stronger inhibitory effects than kojic acid”. Besides, the “intracellular melanin contents compared with kojic acid” value in the data set on B16F10 cells [5] (20 µM) is listed as “levels similar to those in treatment with kojic acid”. In the data set with B16F10 cells [5], the “effect on intracellular melanin contents enhanced by IBMX plus α-MSH” value is “significantly reduced the melanin contents”. Further, in data set [6] (20 µM), the “in situ intracellular tyrosinase inhibition compared with kojic acid” value is reported as “weaker intracellular tyrosinase inhibition efficacy than kojic acid”. Also, in data set [6], the “effect on stimulator-raised in situ intracellular tyrosinase activity (L-dopa staining)” value is on record as “concentration-dependently reduced the stimulator-enhanced intracellular tyrosinase inhibition”.
As for `COc1cc(/C=C2\SC(=S)N(C)C2=O)ccc1O` [Analog 4, (Z)-5-(4-Hydroxy-3-methoxybenzylidene)-3-methyl-2-thioxothiazolidin-4-one], the IC50 at mushroom tyrosinase [1] (setting [8]) is above 200 µM; on mushroom tyrosinase [1] (setting [9]), 54.8 ± 16.1 µM. In addition, the “DPPH radical scavenging activity” value in data set [7] came to 82%.
`COc1ccc(/C=C2\SC(=S)N(C)C2=O)cc1O` [Analog 5, (Z)-5-(3-Hydroxy-4-methoxybenzylidene)-3-methyl-2-thioxothiazolidin-4-one]: the IC50 at mushroom tyrosinase [1] (setting [8]) came out at 13.8 ± 2.64 µM; on mushroom tyrosinase [1] (setting [9]) it was 3.6 ± 0.52 µM. The “type of tyrosinase inhibition (Lineweaver–Burk plots)” value on mushroom tyrosinase [2] was “mixed-type inhibitors”. Besides, in the data set on B16F10 cells [3], the “cytotoxicity (cell viability)” value is “did not exhibit cytotoxicity at ≤20 µM”. The “effect on stimulator-induced cellular tyrosinase activity” value in data set [4] is “concentration-dependently and significantly reduced”. The “cellular tyrosinase inhibition compared with kojic acid (20 µM)” value in data set [4] (setting [10]) is on record as “stronger inhibitory effects than kojic acid”. For the same compound, the “intracellular melanin contents compared with kojic acid” value with B16F10 cells [5] (20 µM) is on record as “levels similar to those in treatment with kojic acid”. Further, the “effect on intracellular melanin contents enhanced by IBMX plus α-MSH” value with B16F10 cells [5] is given as “significantly reduced the melanin contents”. Also, the “effect on stimulator-raised in situ intracellular tyrosinase activity (L-dopa staining)” value in data set [6] is “concentration-dependently reduced the stimulator-enhanced intracellular tyrosinase inhibition”.
`COc1cc(/C=C2\SC(=S)N(C)C2=O)cc(OC)c1O` [Analog 6, (Z)-5-(4-Hydroxy-3,5-dimethoxybenzylidene)-3-methyl-2-thioxothiazolidin-4-one]: the IC50 is above 200 µM on mushroom tyrosinase [1] (setting [8]) and 57.4 ± 10.9 µM at mushroom tyrosinase [1] (setting [9]).
Consider `CN1C(=O)/C(=C/c2ccc(O)c(Br)c2)SC1=S` [Analog 7, (Z)-5-(3-Bromo-4-hydroxybenzylidene)-3-methyl-2-thioxothiazolidin-4-one], for which the IC50 on mushroom tyrosinase [1] (setting [8]) was above 200 µM; at mushroom tyrosinase [1] (setting [9]) it was 33.2 ± 8.42 µM.
Turning to `CN1C(=O)/C(=C/c2cc(Br)c(O)c(Br)c2)SC1=S` [Analog 8, (Z)-5-(3,5-Dibromo-4-hydroxybenzylidene)-3-methyl-2-thioxothiazolidin-4-one], the IC50 at mushroom tyrosinase [1] (setting [8]) and at mushroom tyrosinase [1] (setting [9]) was above 200 µM throughout.
On to `O=c1cc(CO)occ1O` [Kojic acid, reference compound], for which the “decrease of intracellular melanin contents” value in the data set with B16F10 cells [5] (20 µM, IBMX plus α-MSH (raised melanin 4.4-fold)) was found to be 3.3 fold.
With `O=C1O[C@H]([C@@H](O)CO)C(O)=C1O` [L-Ascorbic acid, reference compound], the “DPPH radical scavenging activity” value in data set [7] is listed as 97%.

Values taken from publication PMC11206987, “Investigation of the Efficacy of Benzylidene-3-methyl-2-thioxothiazolidin-4-one Analogs with Antioxidant Activities on the Inhibition of Mushroom and Mammal Tyrosinases” (Molecules, 2024).
